Test results: patent US4556715A, “Nicotinic acid derivatives” (Kyorin Pharmaceutical Co., Ltd., priority 1980, dated 1985)
Where two headings read alike, the source gives them in different places.

Tests used:
[1] = tested on: serum and liver lipid levels in normal rats; test: Effects on relative liver weight, serum and liver lipid levels in normal rats (100 mg/kg, 7 days); format: in vivo, Male Wistar strain rats; settings: for Liver lipid levels Ch / Liver lipid levels PL / Liver lipid levels TG / Serum lipid levels Ch / Serum lipid levels PL / Serum lipid levels TG / Relative liver weight / Liver lipid levels Ch, relative to Control (100) / Liver lipid levels PL, relative to Control (100) / Liver lipid levels TG, relative to Control (100) / Relative liver weight, relative to Control (100) / Serum lipid levels Ch, relative to Control (100) / Serum lipid levels PL, relative to Control (100) / Serum lipid levels TG, relative to Control (100): Table 1; for Liver lipid levels Ch / Liver lipid levels PL / Liver lipid levels TG / Serum lipid levels Ch / Serum lipid levels PL / Serum lipid levels TG: fasted overnight; for Liver lipid levels Ch / Liver lipid levels PL / Liver lipid levels TG / Serum lipid levels Ch / Serum lipid levels PL / Serum lipid levels TG / Relative liver weight: mean ± S.E. (n = 6); for Liver lipid levels Ch, relative to Control (100) / Liver lipid levels PL, relative to Control (100) / Liver lipid levels TG, relative to Control (100) / Relative liver weight, relative to Control (100) / Serum lipid levels Ch, relative to Control (100) / Serum lipid levels PL, relative to Control (100) / Serum lipid levels TG, relative to Control (100): in parentheses
Experimental: (1) Effects on relative liver weight, serum and liver lipid levels in normal rats
Male Wistar strain rats, weighing 180-210 g were orally administered the present compounds (X=Cl, n1 =2, 3, 4 and n2 =1) and 4-(4-chlorobenzyloxy)benzyl nicotinate (KCD-232), being X=Cl, n1 =1, n2 =1, respectively, which were suspended in 0.5% carboxymethyl cellulose (CMC) solution once a day at a dose of 100 mg/kg b.w. for 7 days. The last administration was occured in rats fasted overnight. At 4 hr later blood was withdrawn from jugular vein, clotted and centrifuged to obtain serum. The liver was rapidly removed and weighed. Total lipids were extracted from the serum and liver, and cholesterol (Ch), triglycerides (TG) and phospholipids (PL) levels were determined.

in vivo = settings: mouse, po, p o, male ICR mice
Excerpt: The present compounds were given to 6 week-old male mice of the ICR strain and their acute toxicity was examined.

[2] = tested on: serum and liver lipid levels in rats; test: Serum and liver lipid levels and relative liver weight in rats (25 mg/kg, 10 days); format: in vivo, male Wistar rats; settings: Table 4; for Liver lipid levels Ch / Liver lipid levels PL / Liver lipid levels TG / Relative liver weight / Serum lipid levels Ch / Serum lipid levels PL / Serum lipid levels TG: 25 mg/kg p.o. 10 days, Mean ± S.E. (n = 7); for Liver lipid levels Ch, relative to Control (100) / Liver lipid levels PL, relative to Control (100) / Liver lipid levels TG, relative to Control (100) / Relative liver weight, relative to Control (100) / Serum lipid levels Ch, relative to Control (100) / Serum lipid levels PL, relative to Control (100) / Serum lipid levels TG, relative to Control (100): in parentheses
Experimental: (3) The present compounds and KCD-232 were orally given to male Wistar rats weighing 160-180 g once a day at a dose of 25 mg/kg b.w. for 10 days. Rats were subjected to fast for 4 hr immediately after the last administration of compounds, thereafter they were sacrificed by decapitation and blood was collected, clotted and centrifuged to obtain serum. The liver was removed quickly and weighed. Total lipids were extracted from the serum and liver, and then the levels of total Ch, TG and PL were determined with colorimetric methods.

[3] = tested on: serum and liver lipid levels in rats; test: Serum and liver lipid levels and relative liver weight in rats (100 mg/kg, 10 days); format: in vivo, Male rats of the Wistar strain; settings: for response vs control in vivo at 100 mg/kg: Rattus norvegicus, po; for response vs control in vivo at 100 mg/kg / Relative liver weight, relative to Control (100): in parentheses, Control = (100); for Liver lipid levels Ch / Liver lipid levels PL / Liver lipid levels TG / Relative liver weight / Serum lipid levels Ch / Serum lipid levels PL / Serum lipid levels TG: Mean ± S.E. (n = 9)
Outline: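 Male Wistar rats (160-180 g) on stock diet were dosed orally once daily at 100 mg/kg in 0.5% CMC for 10 days; controls got vehicle. Sacrifice 4 hr after last dose with diet withdrawn; liver weighed. Serum and liver Ch, TG and PL measured colorimetrically after lipid extraction.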

[4] = 240 h, Table 2, read-out: Liver lipid levels PL, relative to Control (100)
[5] = Table 2, read-out: Liver lipid levels Ch, relative to Control (100)
[6] = Table 2, read-out: Liver lipid levels TG, relative to Control (100)
[7] = Table 2, read-out: Serum lipid levels Ch, relative to Control (100)
[8] = Table 2, read-out: Serum lipid levels PL, relative to Control (100)
[9] = Table 2, read-out: Serum lipid levels TG, relative to Control (100)
[10] = Table 2, 100 mg/kg p.o. 10 days
[11] = Table 3, 100 mg/kg p.o. 10 days

## O=C(OCc1ccc(OCc2ccc(Cl)cc2)cc1)c1cccnc1 [KCD-232, 4-(4-chlorobenzyloxy)benzyl nicotinate, reference compound]
[1]; 100 mg/kg p.o. 7 days
  Liver lipid levels Ch: 3.88 ± 0.12 mg/g liver
  Liver lipid levels PL: 36.6 ± 0.7 mg/g liver
  Liver lipid levels TG: 21.45 ± 2.23 mg/g liver
  Serum lipid levels Ch: 58.5 ± 5 mg/dL
  Serum lipid levels PL: 77.7 ± 6.4 mg/dL
  Serum lipid levels TG: 23.4 ± 2.2 mg/dL
  Relative liver weight: 3.20 ± 0.10 g/100 g b.w.
[1]
  Liver lipid levels Ch, relative to Control (100): 110
  Liver lipid levels PL, relative to Control (100): 99
  Liver lipid levels TG, relative to Control (100): 291
  Relative liver weight, relative to Control (100): 104
  Serum lipid levels Ch, relative to Control (100): 77
  Serum lipid levels PL, relative to Control (100): 76
  Serum lipid levels TG, relative to Control (100): 69
[1]; last administration in rats fasted overnight
  liver TG level (in words): remarkably rose liver TG level
In vivo
  LD50: 345 mg/kg
[2]
  Liver lipid levels Ch: 2.98 ± 0.08 mg/g liver
  Liver lipid levels PL: 40.2 ± 0.6 mg/g liver
  Liver lipid levels TG: 4.36 ± 0.65 mg/g liver
  Relative liver weight: 3.72 ± 0.07 g/100 g b.w.
  Serum lipid levels Ch: 63.5 ± 3.1 mg/dL
  Serum lipid levels PL: 89 ± 4.4 mg/dL
  Serum lipid levels TG: 31.3 ± 2.9 mg/dL
  Liver lipid levels Ch, relative to Control (100): 91.7
  Liver lipid levels PL, relative to Control (100): 105.8
  Liver lipid levels TG, relative to Control (100): 58.6
  Relative liver weight, relative to Control (100): 105
  Serum lipid levels Ch, relative to Control (100): 81.4
  Serum lipid levels PL, relative to Control (100): 82.3
  Serum lipid levels TG, relative to Control (100): 82.8
[3]; [4]
  response vs control in vivo at 100 mg/kg: 99.2%
[3]; 240 h, Table 3, read-out: Liver lipid levels PL, relative to Control (100)
  response vs control in vivo at 100 mg/kg: 99.7%
[3]; [5]
  response vs control in vivo at 100 mg/kg: 104%
[3]; [6]
  response vs control in vivo at 100 mg/kg: 63.3%
[3]; [7]
  response vs control in vivo at 100 mg/kg: 72.5%
[3]; [8]
  response vs control in vivo at 100 mg/kg: 67.3%
[3]; [9]
  response vs control in vivo at 100 mg/kg: 32.7%
[3]; Table 3, read-out: Liver lipid levels Ch, relative to Control (100)
  response vs control in vivo at 100 mg/kg: 103%
[3]; Table 3, read-out: Liver lipid levels TG, relative to Control (100)
  response vs control in vivo at 100 mg/kg: 65.2%
[3]; Table 3, read-out: Serum lipid levels Ch, relative to Control (100)
  response vs control in vivo at 100 mg/kg: 70%
[3]; Table 3, read-out: Serum lipid levels PL, relative to Control (100)
  response vs control in vivo at 100 mg/kg: 62.1%
[3]; Table 3, read-out: Serum lipid levels TG, relative to Control (100)
  response vs control in vivo at 100 mg/kg: 36.1%
[3]; [10]
  Liver lipid levels Ch: 3.15 ± 0.08 mg/g liver
  Liver lipid levels PL: 37.8 ± 0.6 mg/g liver
  Liver lipid levels TG: 4.00 ± 0.28 mg/g liver
  Relative liver weight: 4.05 ± 0.05 g/100 g b.w.
  Serum lipid levels Ch: 62.8 ± 3 mg/dL
  Serum lipid levels PL: 100 ± 4.6 mg/dL
  Serum lipid levels TG: 40.5 ± 2.7 mg/dL
[3]; Table 2
  Relative liver weight, relative to Control (100): 105
[3]; [11]
  Liver lipid levels Ch: 2.39 ± 0.07 mg/g liver
  Liver lipid levels PL: 36.1 ± 0.4 mg/g liver
  Liver lipid levels TG: 4.67 ± 0.42 mg/g liver
  Relative liver weight: 3.71 ± 0.07 g/100 g b.w.
  Serum lipid levels Ch: 68.3 ± 3.1 mg/dL
  Serum lipid levels PL: 96.8 ± 3.4 mg/dL
  Serum lipid levels TG: 45.3 ± 3.5 mg/dL
[3]; Table 3
  Relative liver weight, relative to Control (100): 98

## O=C(OCc1ccc(OCCCc2ccc(Cl)cc2)cc1)c1cccnc1 [n1=3, n2=1, 4-[3-(4-Chlorophenyl)propoxy]benzyl nicotinate]
[1]; 100 mg/kg p.o. 7 days, compared with control
  serum Ch, TG and PL (in words): significantly reduced serum Ch, TG and PL
[1]; 100 mg/kg p.o. 7 days
  Liver lipid levels Ch: 3.57 ± 0.15 mg/g liver
  Liver lipid levels PL: 34.1 ± 1.8 mg/g liver
  Liver lipid levels TG: 5.95 ± 1.83 mg/g liver
  Serum lipid levels Ch: 48.4 ± 5.4 mg/dL
  Serum lipid levels PL: 64.4 ± 5.2 mg/dL
  Serum lipid levels TG: 18 ± 2.5 mg/dL
  Relative liver weight: 3.20 ± 0.06 g/100 g b.w.
[1]
  Liver lipid levels Ch, relative to Control (100): 101
  Liver lipid levels PL, relative to Control (100): 92
  Liver lipid levels TG, relative to Control (100): 81
  Relative liver weight, relative to Control (100): 104
  Serum lipid levels Ch, relative to Control (100): 64
  Serum lipid levels PL, relative to Control (100): 63
  Serum lipid levels TG, relative to Control (100): 53
In vivo
  LD50: > 4000 mg/kg
[2]
  Liver lipid levels Ch: 3.16 ± 0.13 mg/g liver
  Liver lipid levels PL: 40.3 ± 0.9 mg/g liver
  Liver lipid levels TG: 3.97 ± 0.35 mg/g liver
  Relative liver weight: 3.84 ± 0.13 g/100 g b.w.
  Serum lipid levels Ch: 60.3 ± 5.3 mg/dL
  Serum lipid levels PL: 83.2 ± 8.5 mg/dL
  Serum lipid levels TG: 24.2 ± 2.8 mg/dL
  Liver lipid levels Ch, relative to Control (100): 97.2
  Liver lipid levels PL, relative to Control (100): 106.1
  Liver lipid levels TG, relative to Control (100): 53.4
  Relative liver weight, relative to Control (100): 109
  Serum lipid levels Ch, relative to Control (100): 76.9
  Serum lipid levels PL, relative to Control (100): 76.9
  Serum lipid levels TG, relative to Control (100): 64.0
[3]; 100 mg/kg p.o. 10 days
  lipid lowering effects compared with KCD-232 (in words): the lipid lowering effects were superior to that of KCD-232
[3]; [4]
  response vs control in vivo at 100 mg/kg: 104%
[3]; [5]
  response vs control in vivo at 100 mg/kg: 101%
[3]; [6]
  response vs control in vivo at 100 mg/kg: 59.3%
[3]; [7]
  response vs control in vivo at 100 mg/kg: 71.9%
[3]; [8]
  response vs control in vivo at 100 mg/kg: 65.2%
[3]; [9]
  response vs control in vivo at 100 mg/kg: 24.7%
[3]; [10]
  Liver lipid levels Ch: 3.09 ± 0.15 mg/g liver
  Liver lipid levels PL: 39.8 ± 0.8 mg/g liver
  Liver lipid levels TG: 3.75 ± 0.27 mg/g liver
  Relative liver weight: 3.89 ± 0.10 g/100 g b.w.
  Serum lipid levels Ch: 62.3 ± 3.1 mg/dL
  Serum lipid levels PL: 96.8 ± 5 mg/dL
  Serum lipid levels TG: 30.6 ± 2.8 mg/dL
[3]; Table 2
  Relative liver weight, relative to Control (100): 101
